In one test the target is T1, Porcine Brain Tubulin (Sus scrofa, UniProt P02550+P02554).
T1 construct: Porcine Brain Tubulin (T240); purchased Cytoskeleton, Inc T240; BK011P; host or cells: porcine brain (tissue-purified)
The experiment in a line: Biochemical Tubulin Polymerization Assay.

The target in test [1] is T2, C-Raf kinase (SEQ ID NO: 2) (Homo sapiens, UniProt P04049, Y340D/Y341D).
T2 construct: C-Raf residues 306-end; Y340D, Y341D with; GST (N); purchased Sigma
The experiment in a line: Biochemical Assay for C-Raf (coupled pyruvate kinase/lactate dehydrogenase assay).

The target in test [2] is T3, B-Raf kinase (SEQ ID NO: 1) (Homo sapiens, UniProt P15056).
T3 construct: GST (N); purchased Sigma
T3 sequence (P15056 416-766): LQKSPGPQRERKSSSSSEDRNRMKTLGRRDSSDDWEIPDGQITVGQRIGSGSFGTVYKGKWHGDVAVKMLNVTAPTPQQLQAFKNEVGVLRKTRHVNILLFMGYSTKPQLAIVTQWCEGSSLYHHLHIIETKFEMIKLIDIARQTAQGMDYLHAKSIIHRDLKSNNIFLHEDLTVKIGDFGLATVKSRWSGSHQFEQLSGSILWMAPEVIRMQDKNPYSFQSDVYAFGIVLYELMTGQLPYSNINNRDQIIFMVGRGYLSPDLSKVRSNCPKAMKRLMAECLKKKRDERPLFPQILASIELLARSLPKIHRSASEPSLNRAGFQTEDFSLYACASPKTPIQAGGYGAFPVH
Nature of the test: Biochemical Assay for B-Raf (coupled pyruvate kinase/lactate dehydrogenase assay).

Test [3] has as its system tubulin polymerization in HCT-116 cells. Nature of the test: Cellular Tubulin Polymerization Assay. The class given is cell-based. As to conditions: Homo sapiens, Table 5, read-out: Tubulin Cellular. The protocol:
HCT-116 cells (catalog #CCL-247) are obtained from the American Type Culture Collect (ATCC, Manassas, VA). Briefly, cells are grown in McCoy's 5A supplemented with 10% characterized fetal bovine serum (Invitrogen, Carlsbad, CA) and 1% Penicillin/Streptomycin/L-Glutamine at 37° C., 5% CO2, and 95% humidity. Cells are expanded until reaching 70-95% confluency at which point they are subcultured or harvested for assay use. 450000 cells are added per well in 1500 μL complete growth medium in a tissue culture treated, 12-well plate. Plates are incubated for 18 to 24 h at 37° C., 5% CO2, and 95% humidity. At the end of the incubation, 2000 μL of base culture media is added to each well, followed by a serial dilution of compound. Plates are incubated for an additional 1 h at 37° C., 5% CO2, and 95% humidity. Lysates are generated by the addition of 100 μL Lysis and Microtubule Stabilization Buffer 1 (LMS01, Cytoskeleton Inc, Denver, CO) supplemented with GTP (BST06, Cytoskeleton Inc), ATP (BSA04, Cytoskeleton Inc), and Protease Inhibitor Cocktail Stock (PIC02, Cytoskeleton Inc). Cells are scraped off wells using a rubber cell scraper and collected in a clean 96-well plate. Lysates are centrifuged at 1000×g, 37° C. for 10 min and supernatant fraction is placed into an additional 96-well plate. The remaining pellet fraction is reconstituted in 100 μL LMS01 buffer and sonicated for 10 min. Pellet and Supernatant fractions are probed for α-tubulin via western blot analysis on the Jess System or equivalent (Bio-techne, Minneapolis, MN). Data is analyzed using Prism software (Graphpad, San Diego, CA) to calculate IC50values.

Another test has as its system MiaPaca-2 cells. Nature of the test: MiaPaca-2 Cell Proliferation Assay. The class given is cell-based. Conditions: Homo sapiens. In short, it runs like this: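 Viability was read as resazurin fluorescence (540 nm excitation, 600 nm emission) after 5–6 h with dye. Compounds were tested as serial dilutions in triplicate, with IC50 derived from the dose–response.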
The next test concerns Pa16c cells. Nature of the test: Pa16c Cell Proliferation Assay. The class given is cell-based. As to conditions: Table 2, read-out: Inhibition of cell proliferation in Pa16c (IC50 class). The essentials: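 Mouse Pa16c cells, 750/well in DMEM with 10% FBS, exposed to serially diluted compound in triplicate for 67 to 72 h at 37° C. Viability read by resazurin reduction over a further 18 to 24 h (ex 540/em 600 nm). IC50 calculated from the dose-response.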

The test system of the next test is HPAF-II cells. The experiment in a line: HPAF-II Cell Proliferation Assay. Conditions: Homo sapiens. The test is classed as cell-based. The essentials: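 HPAF-II cells (750/well) in complete MEM with 10% FBS were exposed to serially diluted compound in triplicate for 115–120 h at 37 °C, 5% CO2. Resazurin was then added for 18–24 h more; fluorescence (ex 540/em 600 nm) gave IC50.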

For another test, the system named is HCT-116 cells. The experiment in a line: HCT-116 Cell Proliferation Assay. The class given is cell-based. As to conditions: Homo sapiens. In short, it runs like this: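 HCT-116 cells, 375/well in McCoy's 5A with 10% FBS, exposed to serial compound dilutions in triplicate for 67 to 72 hours at 37 °C. Viability read by resazurin fluorescence (ex 540/em 600 nm) after a further 4 to 5 h; IC50 values calculated.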

The mark [4] stands for this setting: Table 3, Tubulin Biochemical assay, read-out: Tubulin Biochem (IC50 class).
Setting [5] is: 1 mM ATP, read-out: CRAF (inhibition of biochemical activity, IC50).
Where [6] appears, read: Table 3, read-out: CRAF (IC50 class).
Setting [7] is: 1 mM ATP, read-out: BRAF (inhibition of biochemical activity, IC50).
Where [8] appears, read: Table 3, read-out: BRAF (IC50 class).
Setting [9] is: MIA PaCa-2, MiaPaca-2 cells, Table 2, read-out: Inhibition of cell proliferation in MiaPaca-2 (IC50 class).
Where [10] appears, read: MIA PaCa-2, Table 3, read-out: MiaPaca-2 (IC50 class).
Where [11] appears, read: HPAF-II, HPAF-II cells, Table 2, read-out: Inhibition of cell proliferation in HPAF-II (IC50 class).
The mark [12] stands for this setting: HPAF-II, Table 3, read-out: HPAF-II (IC50 class).
[13] abbreviates: HCT-116, HCT-116 cells, Table 2, read-out: Inhibition of cell proliferation in HCT-116 (IC50 class).
The mark [14] stands for this setting: HCT-116, Table 3, read-out: HCT-116 (IC50 class).
Setting [15] is: MIA PaCa-2, Table 5, MiaPaca-2 mutant KRAS pancreatic cancer cell line, read-out: MiaPaca-2.
The mark [16] stands for this setting: Table 5, HPAF-II mutant KRAS pancreatic cancer cell line, read-out: HPAF-II.
The mark [17] stands for this setting: Table 5, HCT-116 mutant KRAS colorectal cancer cell line, read-out: HCT-116.

Like-named read-outs stand apart in the source and are kept apart here. Where only a bound is given, the exact number is not on record here.

T1 sequence (P02550 whole entry): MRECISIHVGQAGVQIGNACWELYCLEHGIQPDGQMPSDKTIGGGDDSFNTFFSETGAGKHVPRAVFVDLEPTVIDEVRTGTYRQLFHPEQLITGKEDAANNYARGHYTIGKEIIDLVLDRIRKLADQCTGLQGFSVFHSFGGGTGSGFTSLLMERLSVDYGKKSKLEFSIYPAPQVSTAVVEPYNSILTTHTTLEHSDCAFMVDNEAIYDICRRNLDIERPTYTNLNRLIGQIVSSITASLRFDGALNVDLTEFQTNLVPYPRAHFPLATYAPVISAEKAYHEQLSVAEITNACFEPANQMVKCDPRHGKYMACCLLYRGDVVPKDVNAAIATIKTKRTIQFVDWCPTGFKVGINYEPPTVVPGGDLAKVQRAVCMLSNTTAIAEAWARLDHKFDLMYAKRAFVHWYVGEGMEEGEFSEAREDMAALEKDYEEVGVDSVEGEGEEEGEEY
T1 sequence (P02554 whole entry): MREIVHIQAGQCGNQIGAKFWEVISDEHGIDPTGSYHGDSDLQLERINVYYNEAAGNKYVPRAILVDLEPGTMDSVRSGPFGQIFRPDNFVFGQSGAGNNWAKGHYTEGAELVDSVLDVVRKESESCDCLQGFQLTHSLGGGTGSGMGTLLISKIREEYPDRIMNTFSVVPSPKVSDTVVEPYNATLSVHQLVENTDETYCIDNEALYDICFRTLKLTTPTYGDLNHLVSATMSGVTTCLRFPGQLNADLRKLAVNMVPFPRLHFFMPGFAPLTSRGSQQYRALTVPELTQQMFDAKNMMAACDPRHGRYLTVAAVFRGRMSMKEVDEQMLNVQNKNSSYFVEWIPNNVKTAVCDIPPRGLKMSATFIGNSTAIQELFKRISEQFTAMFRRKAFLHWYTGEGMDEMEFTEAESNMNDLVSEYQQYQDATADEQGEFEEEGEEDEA
T2 sequence (P04049 307-648 Y340D/Y341D): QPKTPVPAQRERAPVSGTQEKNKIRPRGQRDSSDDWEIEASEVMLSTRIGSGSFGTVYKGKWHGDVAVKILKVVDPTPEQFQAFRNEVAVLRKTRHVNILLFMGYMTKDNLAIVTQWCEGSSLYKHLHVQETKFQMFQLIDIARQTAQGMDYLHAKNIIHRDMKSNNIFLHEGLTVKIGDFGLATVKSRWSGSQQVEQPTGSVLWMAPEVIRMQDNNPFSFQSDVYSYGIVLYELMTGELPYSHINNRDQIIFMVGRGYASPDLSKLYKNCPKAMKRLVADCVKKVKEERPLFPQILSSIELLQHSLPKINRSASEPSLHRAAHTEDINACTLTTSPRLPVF

On to `Cc1ccc2c(Nc3cccc(Cl)c3F)nccc2c1NC(=O)c1csc2c(N)ncnc12` [Belvarafenib, reference compound], for which the IC50 was more than 100000 nM on Porcine Brain Tubulin (Table 5, previously disclosed BRAF/CRAF inhibitors, read-out: Tubulin Biochem); less than 100 nM in test [1] (Table 5, previously disclosed BRAF/CRAF inhibitors, read-out: CRAF); less than 100 nM in test [2] (Table 5, previously disclosed BRAF/CRAF inhibitors, read-out: BRAF); 1000 to 10000 nM in test [3].

Regarding `CC(C)(C)c1nc(-c2cccc(NS(=O)(=O)c3c(F)cccc3F)c2F)c(-c2ccnc(N)n2)s1` [Dabrafenib, dabrafenib], the IC50 in test [3] lay within 1000 to 10000 nM.

On to `Cc1ccc(NC(=O)c2cc(C(F)(F)F)cnn2)cc1-c1cc(N[C@H](C)CO)nc(-c2ccnc(NC(=O)C3CC3)c2)c1` [Example 45], for which the IC50 on Porcine Brain Tubulin (setting [4]) is 3000 to 20000 nM; in test [1] (setting [5]) it was less than 100 nM; in test [1] (setting [6]), less than 100 nM; in test [2] (setting [7]) it was less than 100 nM; in test [2] (setting [8]) it was less than 100 nM; with MiaPaca-2 cells (setting [9]), 100 to 500 nM. The IC50 in the test on MiaPaca-2 cells (setting [10]) was 100 to 500 nM; in the test with Pa16c cells it was 100 to 500 nM; in the test on HPAF-II cells (setting [11]), less than 100 nM; with HPAF-II cells (setting [12]), less than 100 nM; in the test on HCT-116 cells (setting [13]), less than 100 nM; in the test with HCT-116 cells (setting [14]), less than 100 nM.

Consider `Cc1ccc(NC(=O)c2cc(C(C)(C)F)cnn2)cc1-c1ccnc(-c2ccnc(NC(=O)C3CC3)c2)c1` [Example 59], for which the IC50 on Porcine Brain Tubulin (setting [4]) was less than 3000 nM; in test [1] (setting [5]), less than 100 nM; in test [1] (setting [6]), less than 100 nM; in test [2] (setting [7]), less than 100 nM; in test [2] (setting [8]), less than 100 nM; in the test on MiaPaca-2 cells (setting [9]), 100 to 500 nM. The IC50 in the test on MiaPaca-2 cells (setting [10]) was 100 to 500 nM; in the test on Pa16c cells, 100 to 500 nM; in the test on HPAF-II cells (setting [11]), 100 to 500 nM; in the test with HPAF-II cells (setting [12]), 100 to 500 nM; with HCT-116 cells (setting [13]), less than 100 nM; with HCT-116 cells (setting [14]), less than 100 nM.

For `Cc1ccc(NC(=O)c2cncc(C(F)(F)F)c2)cc1-c1cncc(-c2cc(NC(=O)C3CC3)ncn2)c1` [Example 66], the IC50 on Porcine Brain Tubulin (setting [4]) was more than 100000 nM; in test [1] (setting [5]), less than 100 nM; in test [1] (setting [6]) it was less than 100 nM; in test [2] (setting [7]) it was less than 100 nM; in test [2] (setting [8]) it was less than 100 nM; with MiaPaca-2 cells (setting [9]), 100 to 500 nM. Further, the IC50 with MiaPaca-2 cells (setting [10]) was 100 to 500 nM; in the test on Pa16c cells, 500 to 1000 nM; in the test with HPAF-II cells (setting [11]), less than 100 nM; in the test with HPAF-II cells (setting [12]), less than 100 nM; in the test with HCT-116 cells (setting [13]), less than 100 nM; in the test on HCT-116 cells (setting [14]), less than 100 nM.

`Cc1ccc(NC(=O)c2cc(C(F)(F)F)cnn2)cc1-c1cc(N[C@H](C)CO)nc(-c2cn[nH]c2)c1` [Example 119]: the IC50 at Porcine Brain Tubulin (setting [4]) is less than 3000 nM; in test [1] (setting [5]), less than 100 nM; in test [1] (setting [6]), less than 100 nM; in test [2] (setting [7]), less than 100 nM; in test [2] (setting [8]) it was less than 100 nM; in the test with MiaPaca-2 cells (setting [9]), less than 100 nM. The IC50 in the test with MiaPaca-2 cells (setting [10]), in the test on Pa16c cells, with HPAF-II cells (setting [11]), in the test on HPAF-II cells (setting [12]), in the test with HCT-116 cells (setting [13]) and in the test on HCT-116 cells (setting [14]) was less than 100 nM each time.

Consider `Cc1ccc(NC(=O)N2CC[C@@H](CC(F)(F)F)C2)cc1-c1cc(N[C@H](C)CO)nc(N2CCOCC2)c1` [Exarafenib, reference compound], for which the IC50 is 1000 to 10000 nM in the test with MiaPaca-2 cells (setting [15]), 1000 to 10000 nM in the test with HPAF-II cells (setting [16]), 1000 to 10000 nM in test [3] and 500 to 1000 nM in the test with HCT-116 cells (setting [17]).

`Cc1ccc(NC(=O)c2ccnc(C(F)(F)F)c2)cc1-c1cc(OCCO)nc(N2CCOCC2)c1` [Naporafenib]: the IC50 in test [3] fell in the range of 1000 to 10000 nM.

As for `C[C@@H](NC(=O)c1ncnc(N)c1Cl)c1ncc(C(=O)Nc2cc(C(F)(F)F)c(Cl)cn2)s1` [Tovorafenib, reference compound], the IC50 (in the test on MiaPaca-2 cells (setting [15]); in the test with HPAF-II cells (setting [16]); in test [3]; in the test with HCT-116 cells (setting [17])) was 1000 to 10000 nM in each case.

Take `CCCS(=O)(=O)Nc1ccc(F)c(C(=O)c2c[nH]c3ncc(-c4ccc(Cl)cc4)cc23)c1F` [Vemurafenib, vemurafenib]: in test [3], the IC50 is 1000 to 10000 nM.

For the origin of these results see US20260226084A1, “DUAL RAF AND TUBULIN INHIBITORS AND METHODS OF USE THEREOF” (Deciphera Pharmaceuticals, LLC, priority 2023, published 2026).
